Experimental data taken from PMC9356275, “A quantitative high-throughput screen identifies compounds that lower expression of the SCA2-and ALS-associated gene ATXN2” (The Journal of Biological Chemistry, 2022).
Where a name gives a salt, the structure may show the parent alone. Read-outs that look alike come from different tables or passages of the source.

Key:
[1] = system: ATXN2-luc; test: Secondary assays: ATXN2-luc in S2 and H2 cells, 12 doses, Bright-Glo; assay type: cell-based, human; conditions: for min ATXN2-luc (%): minimum ATXN2-luc signal over 12 doses, H2 and S2 cells; for IC50: Homo sapiens
[2] = system: ATXN2-luc; test: MSSR hit retest: ATXN2-luc luciferase assay, average of H2 and S1 cells (1 and 10 uM); assay type: cell-based, human; conditions: Homo sapiens; for activity at 1 µM: read-out: H2&S1 ave luc 1uM; for activity / activity at 10 µM: read-out: H2&S1 ave luc 10uM; for activity at 10 µM: head line r3 10uM
Text: (§1) Supplement mmc2.xlsx, sheet "43 annotated compounds"

[3] = system: ATXN2-luc; test: MSSR pilot screen: ATXN2-luc luciferase assay (Bright-Glo) in H2 cells, single 10 μM dose; assay type: cell-based, human; conditions: for SD from mean (ATXN2-luc, Z-score): H2 cells, single dose (title: 10 μM compound), overnight; for ¦Score/1SD¦: absolute score divided by 1SD (0.891 or 0.9)
[4] = system: CMV-luc; test: Secondary assays: CMV-luc in SC cells, Bright-Glo; assay type: cell-based, human; conditions: minimum CMV-luc signal in SC cells over 12 doses; summary data
[5] = system: H2 and S1 cells; test: Paired MTT viability assay, average of H2 and S1 cells (1 and 10 uM); assay type: cell-based, human; conditions: Homo sapiens
Text: as §1

[6] = in vitro; conditions: human
Description: The values for H2 and S2 were used as replicates to calculate IC50s and to assess cell viability.
Compounds were plated at 2× concentrations in phenol red–free DMEM in 25 μl in 384-well plates with each compound dose plated in triplicate. An equal volume of S2, H2, or SC cells (24,000 cells/well) suspended in phenol red–free DMEM with 10% fetal bovine serum and 1× penicillin/streptomycin were added. Cells were grown 24 h and then assayed first by using the CellTiter-Fluor reagent (20 μl) followed by the addition of Bright-Glo (65 μl) luciferase assay, using a multimode plate reader (Beckman; DT880). Values were reported as the mean ± SD with n = 3. IC50s were determined by the Hill coefficient method using an online tool (https://www.aatbio.com/tools/ic50-calculator).

[7] = system: CMV-luc; test: MSSR counterscreen: CMV-luc expression in HC cells; assay type: cell-based, human; conditions: for CMV-luc, averages as percent of no compound control: HC cells, n=4 wells; for ATXN2 luc activity (call): summary call for the 12 pilot compounds tested on CMV-luc
[8] = system: ATXN2-luc; test: NCATS qHTS (LOPAC pilot, primary and confirmation): ATXN2-luc in S2 cells, 1536-well, Steady-Glo; assay type: cell-based, human
Outline: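 […] S2 cells expressing ATXN2-luc in phenol red–free DMEM screened in 1536-well qHTS format. Luciferase read by Steady-Glo luminescence after 5 min at room temperature (2 s exposure), multiplexed with CellTiter-Fluor viability.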

[9] = system: ATXN2-luc; test: ATXN2-luc luciferase dose-response in H2 cells, 48 h; assay type: cell-based; conditions: Homo sapiens, read-out: IC50, ATXN2-luc expression by luciferase assay
[10] = system: H2 cells; conditions: 1 nM
[11] = system: endogenous ATXN2; test: Endogenous ATXN2 mRNA by qPCR in HEK-293 cells; assay type: cell-based; conditions: Homo sapiens, HEK293, 48 h, read-out: IC50, endogenous ATXN2 by qPCR
[12] = system: ATXN2-luc; test: MSSR hit retest / multiconcentration testing: ATXN2-luc luciferase assay in H2 cells (1 and 10 μM); assay type: cell-based, human; conditions: 1 uM compound; luciferase, average of H2 and S1 cells expressing ATXN2-luc; rescreen
[13] = pilot screen at 10 µM compound, H2 cells expressing ATXN2-luc
[14] = read-out: H2&S1 ave MTT 1uM, 1 uM compound
[15] = read-out: H2&S1 ave MTT 10uM, 10 uM compound
[16] = 1 uM compound, average of H2 and S1 cells
[17] = 1 uM compound, read-out: H2&S1 ave MTT 1uM
[18] = 10 uM compound, read-out: H2&S1 ave MTT 10uM
[19] = Homo sapiens, LOPAC library screening optimization, logarithm of AC50 (negative values), read-out: Log AC50 (converted)
[20] = Homo sapiens, LOPAC library screening optimization, read-out: AC50
[21] = LOPAC library screening optimization, read-out: AC50

Row | SMILES | min ATXN2-luc (%) ([1]; summary data) | activity at 1 µM [2] [%] | activity [2] [%] | SD from mean (ATXN2-luc, Z-score) [3] [SD] | SD from mean (pilot screen) ([3]; pilot screen) [SD] | SD from mean (pilot screen) [3, 13] | ¦Score/1SD¦ ([3]; pilot screen) | min SC luc (%) [4] [%] | viability at 1 µM [5, 14] [%] | viability at 10 µM [5, 15] [%] | viability at 24 h [6] [%] | activity at 1 µM [2, 16] [%] | activity at 10 µM ([2]; average of H2 and S1 cells) [%] | CMV-luc, averages as percent of no compound control ([7]; 0.1 uM compound) | CMV-luc, averages as percent of no compound control ([7]; 1 uM compound) | CMV-luc, averages as percent of no compound control ([7]; 10 uM compound) | ATXN2 luc activity (call) [7] | viability at 1 µM [5, 17] [%] | viability at 10 µM [5, 18] [%] | AC50 [8, 19] [µM] | other results
1 | C[C@H]1O[C@@H](O[C@H]2[C@@H](O)C[C@H](O[C@H]3[C@@H](O)C[C@H](O[C@H]4CC[C@@]5(C)[C@H](CC[C@@H]6[C@@H]5C[C@@H](O)[C@]5(C)[C@@H](C7=CC(=O)OC7)CC[C@]65O)C4)O[C@@H]3C)O[C@@H]2C)C[C@H](O)[C@@H]1O [Digoxin] | 9.041 | 47 | 12 | -3.904 | -3.904 | -3.904 | 4.38 | 107.579 | 78.7 | 73.5 | 67.9 |  |  |  |  |  |  |  |  |  | 
2 | COc1ccc(CN2CCN(C(c3ccc(F)cc3)c3ccc(F)cc3)CC2)c(OC)c1OC [LOMERIZINE DiHCl] |  |  |  | -2.782 | -2.782 |  | 3.09 |  |  |  |  | 102 | 55 | 97.7058% of no compound control | 102.901% of no compound control | 80.3815% of no compound control | Unclear | 101 | 37.6 |  | SD from mean (pilot screen) ([3]; pilot screen, H2 cells expressing ATXN2-luc, single dose printed as 10 μM compound): -2.782; inhibition at 1 µM ([7]; Homo sapiens, read-out: CMV-luc inhibition @ 1 uM): 0%; inhibition at 10 µM ([7]; Homo sapiens, read-out: CMV-luc inhibition @ 10 uM): 20%
3 | CC[C@H](CO)Nc1nc(NCc2ccccc2)c2ncn(C(C)C)c2n1 [NCGC00094374-05, roscovitine] | 57.3224 |  |  |  |  |  |  | 82.4469 |  |  | 77.8 |  |  |  |  |  |  |  |  | 28.2 | AC50 [8, 20]: 28.2 µM; Log AC50 ([8]; LOPAC library screening optimization, logarithm of AC50 (negative values)): -4.5; AC50 [8, 21]: 31.6 µM
4 | C[C@@H]1O[C@@H](O[C@H]2C[C@@H](O)[C@]3(CO)[C@H]4[C@H](O)C[C@]5(C)[C@@H](C6=CC(=O)OC6)CC[C@]5(O)[C@@H]4CC[C@]3(O)C2)[C@H](O)[C@H](O)[C@H]1O [OUABAIN] | 6.982 |  |  | -3.832 | -3.832 | -3.832 | 4.26 | 122.219 |  |  | 74.3 | 14 | 12 |  |  |  |  | 51.8 | 60.4 | < 0.09 | IC50 ([1]; ATXN2-luc luciferase assays in H2 and S2 cells, 12 doses plus a zero dose, summary data, read-out: Mean IC50): 122 nM; AC50 [8, 20]: < 0.09 µM; Curve Class ([8]; LOPAC library (1,280 compounds) screening optimization, signed sub-classes (-1.1, -2.2, -3 ...)): -1.1; AC50 [8, 21]: 0.112 µM
5 | C[C@@H]1O[C@@H](O[C@@H]2C=C3CC[C@@H]4[C@H](CC[C@]5(C)[C@@H](c6ccc(=O)oc6)CC[C@]45O)[C@@]3(C)CC2)[C@H](O)[C@H](O)[C@H]1O [Proscillaridin A] | 7.9859 | 54 | 22 | -7.684 | -7.684 | -7.684 | 8.62 | 121.976 | 47.8 | 45 | 74.2 |  |  |  |  |  |  |  |  |  | IC50 ([1]; 24 h, read-out: IC50 for lowering ATXN2-luc): 17 nM; IC50 [9]: 52 nM; Cellular viability (MTT) [10]: minimal effect on cellular viability; IC50 [11]: 677 nM
6 | CN1CCN(CCCN2c3ccccc3Sc3ccc(C(F)(F)F)cc32)CC1 [TRIFLUOPERAZINE HYDROCHLORIDE] |  |  |  | -5.856 | -5.856 | -5.856 | 6.51 |  |  |  |  | 105 | 1.54 | 94.6408% of no compound control | 100.563% of no compound control | 98.5115% of no compound control | Unclear | 88.1 | 8.76 |  | Comment on CMV-luc inhibition ([7]; result in words): No CMV-luc inhibition at 10 uM; H2&S1 ave luc 1uM [12]: 105
